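Exposure lasted 48 hours, with cells grown in 96-well plates and compounds tested at five concentrations. GI50 marks 50% less growth.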 Active and inactive are the calls of the source. Cut-off read from the data, not from the text of the source: active = GI50 up to about 1.1 µM and inactive = higher.
Legend:
Assay in all cases: growth of human tumour cells (NCI), 48 h
COLO 205 = system: COLO 205
OVCAR-4 = system: OVCAR-4
CAKI-1 = system: CAKI-1
UACC-257 = system: UACC-257
HOP-62 = system: HOP-62
HOP-92 = system: HOP-92
RXF 393 = system: RXF 393
UO-31 = system: UO-31
OVCAR-8 = system: OVCAR-8
A498 = system: A498
KM12 = system: KM12
U-251 = system: U-251
SNB-19 = system: SNB-19
NCI-H23 = system: NCI-H23
A549 = system: A549
ACHN = system: ACHN
786-0 = system: 786-0

Measured: GI50

Nc1c2ccccc2nc2nccnc12
inactive: COLO 205 > 100 µM | OVCAR-4 > 100 µM | CAKI-1 > 100 µM | UACC-257 > 100 µM | HOP-62 > 100 µM | HOP-92 > 100 µM | RXF 393 > 100 µM | UO-31 > 100 µM | OVCAR-8 > 100 µM | A498 > 100 µM | KM12 > 100 µM | U-251 > 100 µM | SNB-19 > 100 µM | NCI-H23 > 100 µM | A549 > 100 µM | ACHN > 100 µM | 786-0 > 100 µM

O=c1/c(=C/c2ccccc2[N+](=O)[O-])sc2nc3ccccc3n12
inactive: COLO 205 26.6 µM | OVCAR-4 > 46.5 µM | CAKI-1 > 73.1 µM | UACC-257 34.8 µM | HOP-62 42.4 µM | HOP-92 32.1 µM | RXF 393 28.3 µM | UO-31 > 46.5 µM | OVCAR-8 38.9 µM | A498 17.3 µM | KM12 34.7 µM | U-251 19.9 µM | SNB-19 21.9 µM | NCI-H23 28.6 µM | A549 30.8 µM | ACHN > 46.5 µM | 786-0 24.5 µM

CC(=O)OCC1OC(n2c(=O)n(-c3ccccc3)c(=O)c3cc(Br)cc(Br)c32)C(OC(C)=O)C(OC(C)=O)C1OC(C)=O (configuration not stated)
inactive: COLO 205 > 100 µM | OVCAR-4 7.5 µM | CAKI-1 2.56 µM | UACC-257 > 100 µM | HOP-62 88.7 µM | HOP-92 > 100 µM | RXF 393 48.1 µM | UO-31 > 100 µM | OVCAR-8 > 100 µM | A498 > 100 µM | KM12 > 100 µM | U-251 71 µM | SNB-19 > 100 µM | NCI-H23 > 100 µM | A549 > 100 µM | ACHN > 100 µM | 786-0 > 100 µM

CS/C(c1ccccc1)=[N+](/C)[O-]
inactive: COLO 205 > 43.3 µM | OVCAR-4 > 100 µM | CAKI-1 > 100 µM | UACC-257 > 100 µM | HOP-62 > 100 µM | HOP-92 > 100 µM | RXF 393 > 100 µM | UO-31 > 100 µM | OVCAR-8 > 100 µM | A498 > 100 µM | KM12 > 100 µM | U-251 > 100 µM | SNB-19 > 100 µM | NCI-H23 > 100 µM | A549 > 100 µM | ACHN > 100 µM | 786-0 > 100 µM

CCOC(=O)N1C2C=C(C)C(C3C(C)C(=O)N31)N(C(=O)c1ccccc1)O2 (configuration not stated)
inactive: COLO 205 > 100 µM | OVCAR-4 > 100 µM | CAKI-1 > 100 µM | UACC-257 > 100 µM | HOP-62 > 100 µM | HOP-92 > 100 µM | RXF 393 > 100 µM | UO-31 > 100 µM | OVCAR-8 > 100 µM | A498 > 100 µM | KM12 > 100 µM | U-251 > 100 µM | SNB-19 > 100 µM | NCI-H23 > 100 µM | A549 > 100 µM | ACHN > 100 µM | 786-0 > 100 µM

c1ccc(C2OC3(CCC[C@H]4C[C@H]43)O[C@H]2c2ccccc2)cc1 (some centres not stated)
inactive: COLO 205 24.7 µM | OVCAR-4 53.2 µM | CAKI-1 29.6 µM | UACC-257 30.9 µM | HOP-62 56.1 µM | HOP-92 27.3 µM | RXF 393 38.5 µM | UO-31 38.7 µM | OVCAR-8 48 µM | A498 > 100 µM | KM12 29 µM | U-251 41.1 µM | SNB-19 44.4 µM | NCI-H23 38.6 µM | A549 43.2 µM | ACHN 30.3 µM | 786-0 57 µM

From ChEMBL document CHEMBL1201862, “PubChem BioAssay data set” (2004)
